These compounds were tested against T1, Angiotensin-converting enzyme (Oryctolagus cuniculus, UniProt P12822) (assay: Inhibitory activity of compound against angiotensin I converting enzyme was determined).
T1 sequence (P12822 whole entry): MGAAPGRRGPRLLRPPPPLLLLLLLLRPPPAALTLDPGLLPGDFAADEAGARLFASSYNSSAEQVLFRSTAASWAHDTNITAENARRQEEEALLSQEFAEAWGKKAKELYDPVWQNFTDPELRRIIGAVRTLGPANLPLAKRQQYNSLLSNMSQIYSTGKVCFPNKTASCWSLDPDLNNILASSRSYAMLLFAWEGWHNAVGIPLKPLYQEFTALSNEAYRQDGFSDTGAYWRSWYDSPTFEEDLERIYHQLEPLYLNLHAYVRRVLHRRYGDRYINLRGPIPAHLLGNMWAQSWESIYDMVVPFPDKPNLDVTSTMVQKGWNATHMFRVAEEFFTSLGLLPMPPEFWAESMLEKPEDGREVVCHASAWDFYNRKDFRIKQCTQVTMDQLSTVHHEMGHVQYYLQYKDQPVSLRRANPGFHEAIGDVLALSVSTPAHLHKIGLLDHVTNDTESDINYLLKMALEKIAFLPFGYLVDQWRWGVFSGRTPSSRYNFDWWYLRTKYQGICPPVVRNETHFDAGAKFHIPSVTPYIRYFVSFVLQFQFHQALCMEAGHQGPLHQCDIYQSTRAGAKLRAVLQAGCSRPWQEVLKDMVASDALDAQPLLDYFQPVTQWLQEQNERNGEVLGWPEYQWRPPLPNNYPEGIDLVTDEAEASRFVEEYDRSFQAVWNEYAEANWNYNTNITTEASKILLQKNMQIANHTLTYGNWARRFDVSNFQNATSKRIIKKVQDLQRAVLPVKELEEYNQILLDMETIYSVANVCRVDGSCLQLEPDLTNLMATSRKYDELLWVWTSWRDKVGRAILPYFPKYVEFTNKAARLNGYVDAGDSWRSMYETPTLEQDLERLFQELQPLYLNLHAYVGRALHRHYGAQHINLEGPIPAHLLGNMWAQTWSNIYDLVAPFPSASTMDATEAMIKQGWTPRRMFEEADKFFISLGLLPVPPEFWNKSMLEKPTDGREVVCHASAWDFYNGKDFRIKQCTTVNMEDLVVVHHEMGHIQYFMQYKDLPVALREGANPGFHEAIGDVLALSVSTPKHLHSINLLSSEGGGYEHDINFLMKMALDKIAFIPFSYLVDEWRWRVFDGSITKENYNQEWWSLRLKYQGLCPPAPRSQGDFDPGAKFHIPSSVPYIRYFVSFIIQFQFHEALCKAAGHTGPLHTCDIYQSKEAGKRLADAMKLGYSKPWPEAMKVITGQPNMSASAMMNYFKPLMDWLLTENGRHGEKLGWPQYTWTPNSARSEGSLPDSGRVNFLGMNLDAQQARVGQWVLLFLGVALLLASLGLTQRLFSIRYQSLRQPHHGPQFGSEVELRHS

SMILES | IC50 [nM]
C[C@@H](C[Si](O)(O)[C@@H](Cc1ccccc1)NC(=O)c1ccccc1)C(=O)N1CCC[C@H]1C(=O)O | 72
C[C@H](C[Si](O)(O)[C@@H](Cc1ccccc1)NC(=O)c1ccccc1)C(=O)N1CCC[C@H]1C(=O)O | 19
CC(C)CC(NC(=O)c1ccccc1)[Si](O)(O)CC(C)C(=O)N1CCC[C@H]1C(=O)O (stereo not given in full) | 14
C[C@@H](C[Si](O)(O)[C@H](Cc1ccccc1)NC(=O)c1ccccc1)C(=O)N1CCC[C@H]1C(=O)O | 207
C[C@H](C[Si](O)(O)[C@H](Cc1ccccc1)NC(=O)c1ccccc1)C(=O)N1CCC[C@H]1C(=O)O | 3.8
